Reference: ChEMBL document CHEMBL4610123, “Structure-Based Drug Discovery of N-((R)-3-(7-Methyl-1H-indazol-5-yl)-1-oxo-1-(((S)-1-oxo-3-(piperidin-4-yl)-1-(4-(pyridin-4-yl)piperazin-1-yl)propan-2-yl)amino)propan-2-yl)-2'-oxo-1',2'-dihydrospiro[piperidine-4,4'-pyrido[2,3-d][1,3]oxazine]-1-carboxamide (HTL22562): A Calcitonin Gene-Related …” (J Med Chem, 2020)
Values after ≈ are worked out from the molar mass of the structure shown.

Columns and labels:
[1] = Clearance in rat at 2 mg/kg, iv using 100% acidified saline formulation; assay type: ADME, organism-based; details: in vivo
[2] = Thermodynamic solubility of the compound at pH 7.4; assay type: physicochemical; details: buffer, read-out: Therm_solubility
[3] = Thermodynamic solubility of the compound at pH 6; assay type: physicochemical; details: buffer, read-out: Therm_solubility
[4] = target: T1, Calcitonin-gene-related peptide receptor, CALCRL/RAMP1 (Homo sapiens, UniProt O60894+Q16602); experiment: Antagonist activity at human CGRP receptor in human SK-N-MC cells assessed as inhibition of CGRP-induced cAMP production preincubated for 30 mins followed by CGRP addition and measured after 30 mins by HTRF assay; assay type: functional, cell-based
[5] = target: T1, Calcitonin-gene-related peptide receptor, CALCRL/RAMP1; experiment: Displacement of [3H]telcagepant from recombinant human CLR/RAMP1 expressed in Sf21 insect cell membranes measured after 60 mins by microbeta scintillation counting method
[6] = Clearance in rat at 0.5 mg/kg, iv; assay type: ADME, organism-based; details: in vivo
[7] = Clearance in rat at 2 mg/kg, iv using 10% DMAC[…] Solutol HS15/80% saline formulation; assay type: ADME, organism-based; details: in vivo

T1 sequence (O60894 whole entry): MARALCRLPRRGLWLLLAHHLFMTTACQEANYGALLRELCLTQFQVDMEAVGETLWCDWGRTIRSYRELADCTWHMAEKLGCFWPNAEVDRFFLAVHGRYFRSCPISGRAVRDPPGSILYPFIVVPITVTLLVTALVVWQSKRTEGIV
T1 sequence (Q16602 whole entry): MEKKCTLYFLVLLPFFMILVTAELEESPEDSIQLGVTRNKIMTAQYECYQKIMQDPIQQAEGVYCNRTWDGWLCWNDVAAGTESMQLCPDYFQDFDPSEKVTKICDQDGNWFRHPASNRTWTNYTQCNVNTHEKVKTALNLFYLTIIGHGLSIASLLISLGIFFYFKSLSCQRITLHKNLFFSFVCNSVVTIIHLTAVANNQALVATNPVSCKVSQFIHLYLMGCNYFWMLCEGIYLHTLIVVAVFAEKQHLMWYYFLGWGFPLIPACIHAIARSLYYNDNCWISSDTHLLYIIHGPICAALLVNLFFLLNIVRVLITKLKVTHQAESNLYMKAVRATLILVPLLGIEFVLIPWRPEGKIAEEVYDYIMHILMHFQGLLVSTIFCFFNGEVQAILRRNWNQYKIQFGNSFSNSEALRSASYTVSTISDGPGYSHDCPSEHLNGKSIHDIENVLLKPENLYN

Compound	pKb [4]	clearance [7]	also measured
Cc1cc(C[C@@H](NC(=O)N2CCC(n3c(=O)[nH]c4ncccc43)CC2)C(=O)N[C@@H](Cc2ccncc2)C(=O)N2CCN(c3ccncc3)CC2)cc2cn[nH]c12	10		clearance [1]: 87 mL/min/kg; solubility thermodynamic [2]: 230 µM (≈ 174 µg/mL); solubility thermodynamic [3]: 1770 µM (≈ 1340 µg/mL); Ki [5]: 100 pM
Cc1cc(C[C@@H](NC(=O)N2CCC(n3c(=O)[nH]c4ncccc43)CC2)C(=O)N[C@@H](CCCCN)C(=O)N2CCN(c3ccncc3)CC2)cc2cn[nH]c12	11		Ki [5]: 25.1 pM
Cc1cc(C[C@@H](NC(=O)N2CCC(n3c(=O)[nH]c4ncccc43)CC2)C(=O)N[C@@H](CC2CCNCC2)C(=O)N2CCN(c3ccncc3)CC2)cc2cn[nH]c12			clearance [6]: 55 mL/min/kg
O=C(N[C@@H](CC1CCNCC1)C(=O)N1CCN(c2ccncc2)CC1)[C@@H](Cc1cc(Br)c(O)c(Br)c1)NC(=O)N1CCC(n2c(=O)[nH]c3ncccc32)CC1	10.8	28 mL/min/kg	
Cc1cc(C[C@@H](NC(=O)N2CCC(N3Cc4ccccc4NC3=O)CC2)C(=O)N[C@@H](CC2CCNCC2)C(=O)N2CCN(c3ccncc3)CC2)cc2cn[nH]c12	10.1	6 mL/min/kg	
O=C(N[C@@H](CC1CCNCC1)C(=O)N1CCN(c2ccncc2)CC1)[C@@H](Cc1cc(Br)c(O)c(Br)c1)NC(=O)N1CCC(N2Cc3ccccc3NC2=O)CC1	11.2	21 mL/min/kg	
Cc1cc(C[C@@H](NC(=O)N2CCC(c3cc4ccccc4[nH]c3=O)CC2)C(=O)N[C@@H](CC2CCNCC2)C(=O)N2CCN(c3ccncc3)CC2)cc2cn[nH]c12	9.8	31 mL/min/kg	solubility thermodynamic [3]: 10 µM (≈ 7.73 µg/mL)
NCCCC[C@H](NC(=O)[C@@H](Cc1cc(Br)c(O)c(Br)c1)NC(=O)N1CCC(N2Cc3ccccc3NC2=O)CC1)C(=O)N1CCN(c2ccncc2)CC1 [OLCEGEPANT]	11.2	38 mL/min/kg	
